Laboratory results taken from PubChem BioAssay (NCI).
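Cultured in 96-well plates, cells were exposed to test compound for 48 hours across five concentrations. TGI is the concentration that stops growth completely.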

Legend:
Test in all cases: DTP human tumour cell line panel, 48 h
CCRF-CEM leukemia = system: CCRF-CEM leukemia
HCT-116 colon = system: HCT-116 colon
MOLT-4 leukemia = system: MOLT-4 leukemia
SNB-19 CNS = system: SNB-19 CNS
SNB-75 CNS = system: SNB-75 CNS
NCI-H23 lung = system: NCI-H23 lung

## Cc1ccc(-c2c(C#N)c(-c3ccccc3)n(NS(=O)(=O)c3ccc(C)cc3)c(=O)c2C#N)cc1
CCRF-CEM leukemia
  TGI: 80.3 µM
HCT-116 colon
  TGI: > 100 µM
MOLT-4 leukemia
  TGI: 54.5 µM
SNB-19 CNS
  TGI: > 100 µM
SNB-75 CNS
  TGI: > 100 µM

## NCc1ccc(-c2ccc(CN)s2)s1
CCRF-CEM leukemia
  TGI: > 100 µM
HCT-116 colon
  TGI: > 100 µM
MOLT-4 leukemia
  TGI: > 100 µM
NCI-H23 lung
  TGI: > 100 µM
SNB-19 CNS
  TGI: > 100 µM
SNB-75 CNS
  TGI: > 100 µM

## Cc1ccc2c(c1)C(=O)C1(C2)Cc2c(C)cccc2C1=O (centres undefined)
CCRF-CEM leukemia
  TGI: > 100 µM
HCT-116 colon
  TGI: > 100 µM
MOLT-4 leukemia
  TGI: > 100 µM
NCI-H23 lung
  TGI: > 100 µM
SNB-19 CNS
  TGI: > 100 µM
SNB-75 CNS
  TGI: > 100 µM

## O=C(CC(O)(C(F)(F)F)C(F)(F)F)C(c1ccccc1)C(O)(C(F)(F)F)C(F)(F)F (centres undefined)
CCRF-CEM leukemia
  TGI: > 100 µM
HCT-116 colon
  TGI: > 100 µM
MOLT-4 leukemia
  TGI: > 100 µM
NCI-H23 lung
  TGI: > 100 µM
SNB-19 CNS
  TGI: > 100 µM
SNB-75 CNS
  TGI: 27.2 µM

## CC(=O)Nc1ccc(-c2nc3ccccc3s2)cc1Br
CCRF-CEM leukemia
  TGI: > 100 µM
HCT-116 colon
  TGI: > 100 µM
MOLT-4 leukemia
  TGI: > 100 µM
NCI-H23 lung
  TGI: > 97.3 µM
SNB-19 CNS
  TGI: > 93.4 µM
SNB-75 CNS
  TGI: 78 µM

## CC(=O)C(C(=O)c1ccc(C)cc1)[C@@H]1OC(C)(C)O[C@@H]1[C@H]1COC(C)(C)O1 (some centres undefined)
CCRF-CEM leukemia
  TGI: > 36.2 µM
HCT-116 colon
  TGI: 15.4 µM
MOLT-4 leukemia
  TGI: 22.1 µM
NCI-H23 lung
  TGI: 32.6 µM
SNB-19 CNS
  TGI: > 48.3 µM
SNB-75 CNS
  TGI: > 59.2 µM

## Cc1cccc(N/C(=C(/C(Cl)=C(Cl)Cl)[N+](=O)[O-])n2nnc3ccccc32)c1
CCRF-CEM leukemia
  TGI: > 100 µM
HCT-116 colon
  TGI: 32.9 µM
MOLT-4 leukemia
  TGI: > 100 µM
NCI-H23 lung
  TGI: 34.7 µM
SNB-19 CNS
  TGI: 34.3 µM

## CC(C)CCCC(C)[C@H]1CC[C@H]2n3c(nnc3-c3ccccc3)CCC[C@]12C (some centres undefined)
CCRF-CEM leukemia
  TGI: 24.6 µM
HCT-116 colon
  TGI: 40.4 µM
MOLT-4 leukemia
  TGI: 13.2 µM
NCI-H23 lung
  TGI: 28.8 µM
SNB-19 CNS
  TGI: 28.2 µM
SNB-75 CNS
  TGI: 35.3 µM

## COc1ccc(CC2Cc3ccccc3CCN2)cc1OC (centres undefined)
CCRF-CEM leukemia
  TGI: > 50 µM
HCT-116 colon
  TGI: > 50 µM
MOLT-4 leukemia
  TGI: > 50 µM
NCI-H23 lung
  TGI: > 50 µM
SNB-19 CNS
  TGI: > 50 µM
SNB-75 CNS
  TGI: > 50 µM

## Cc1sc2nc(N(C)C)oc(=O)c2c1C
CCRF-CEM leukemia
  TGI: > 100 µM
HCT-116 colon
  TGI: > 100 µM
MOLT-4 leukemia
  TGI: > 100 µM
NCI-H23 lung
  TGI: > 100 µM
SNB-19 CNS
  TGI: > 100 µM
SNB-75 CNS
  TGI: > 100 µM

## C[C@]12CC[C@H]3[C@@H](CCC4=CC(=O)CC[C@@H]43)[C@@H]1CC[C@]2(O)C(N)=O
CCRF-CEM leukemia
  TGI: > 100 µM
HCT-116 colon
  TGI: > 100 µM
MOLT-4 leukemia
  TGI: > 100 µM
NCI-H23 lung
  TGI: > 100 µM
SNB-19 CNS
  TGI: > 100 µM
SNB-75 CNS
  TGI: > 100 µM

## CC[C@]12C=CCN3CC[C@@]4(c5cc(Br)c(OC)c([N+](=O)[O-])c5N(C)[C@H]4[C@@](O)(C(=O)OC)[C@@H]1OC(C)=O)[C@@H]32
CCRF-CEM leukemia
  TGI: > 100 µM
HCT-116 colon
  TGI: > 100 µM
MOLT-4 leukemia
  TGI: 70.6 µM
NCI-H23 lung
  TGI: > 100 µM
SNB-19 CNS
  TGI: > 100 µM
SNB-75 CNS
  TGI: > 100 µM

## COC(=O)c1ccccc1/C=C1\Cc2c(ccc3c2CCC3)C1=O
CCRF-CEM leukemia
  TGI: > 100 µM
HCT-116 colon
  TGI: > 100 µM
MOLT-4 leukemia
  TGI: > 100 µM
NCI-H23 lung
  TGI: > 100 µM
SNB-19 CNS
  TGI: > 100 µM
SNB-75 CNS
  TGI: > 100 µM

## CN1CCC23c4c5ccc(Oc6nnnn6-c6ccccc6)c4OC2c2[nH]c4ccccc4c2CC3(O)C1C5 (centres undefined)
CCRF-CEM leukemia
  TGI: 4.19 µM
HCT-116 colon
  TGI: 3.45 µM
MOLT-4 leukemia
  TGI: 5.33 µM
NCI-H23 lung
  TGI: 33.7 µM
SNB-19 CNS
  TGI: 22.4 µM
SNB-75 CNS
  TGI: 7.66 µM

## CC(=O)OCC1OC(NC(=S)Nn2c(=O)[nH]c3ccccc3c2=O)C(OC(C)=O)C(OC(C)=O)C1OC(C)=O (centres undefined)
CCRF-CEM leukemia
  TGI: > 100 µM
HCT-116 colon
  TGI: > 100 µM
MOLT-4 leukemia
  TGI: > 100 µM
NCI-H23 lung
  TGI: > 100 µM
SNB-19 CNS
  TGI: > 100 µM
SNB-75 CNS
  TGI: > 100 µM

## CC[C@@]1(O)C(=O)OCc2c1cc1n(c2=O)Cc2c-1nc1ccccc1c2/C=N\NC(=O)C[n+]1ccccc1
CCRF-CEM leukemia
  TGI: > 100 µM
HCT-116 colon
  TGI: > 38.1 µM
MOLT-4 leukemia
  TGI: 11.7 µM
NCI-H23 lung
  TGI: 7.71 µM
SNB-19 CNS
  TGI: 19.1 µM
SNB-75 CNS
  TGI: > 28.2 µM

## CCSc1nnc(Sc2c3ccccc3nc3ccccc23)s1
CCRF-CEM leukemia
  TGI: > 100 µM
HCT-116 colon
  TGI: 23.5 µM
MOLT-4 leukemia
  TGI: 6.25 µM
NCI-H23 lung
  TGI: 53.1 µM
SNB-19 CNS
  TGI: > 84.5 µM
SNB-75 CNS
  TGI: > 100 µM

## Nc1cc(Cl)cc2cc(Cl)cnc12
CCRF-CEM leukemia
  TGI: > 100 µM
HCT-116 colon
  TGI: > 100 µM
MOLT-4 leukemia
  TGI: > 100 µM
NCI-H23 lung
  TGI: > 100 µM
SNB-19 CNS
  TGI: > 100 µM
SNB-75 CNS
  TGI: > 100 µM

## COc1cccc(Nc2nc(C)c([N+](=O)[O-])c(Nc3cccc(OC)c3)n2)c1
HCT-116 colon
  TGI: > 100 µM
MOLT-4 leukemia
  TGI: 30.2 µM
NCI-H23 lung
  TGI: > 100 µM
SNB-19 CNS
  TGI: > 100 µM
SNB-75 CNS
  TGI: 4.73 µM

## CC1=NN(c2ccccc2)C2(C1)C(Cl)C(=O)N2c1nc2ccccc2s1 (centres undefined)
CCRF-CEM leukemia
  TGI: 48.8 µM
HCT-116 colon
  TGI: 51.5 µM
MOLT-4 leukemia
  TGI: 78.6 µM
NCI-H23 lung
  TGI: 77.6 µM
SNB-19 CNS
  TGI: > 100 µM
SNB-75 CNS
  TGI: > 100 µM

## CCOC(=O)CC[C@H](N)C(=O)N[C@@H](Cc1ccc(N(CCCl)CCCl)cc1)C(=O)OCC
CCRF-CEM leukemia
  TGI: 4.5 µM
HCT-116 colon
  TGI: 4.09 µM
MOLT-4 leukemia
  TGI: 3.61 µM
NCI-H23 lung
  TGI: 1.35 µM
SNB-19 CNS
  TGI: 18.1 µM
SNB-75 CNS
  TGI: 4.44 µM

## COc1ccc(NC(=S)Nc2cc(C)ccn2)cc1
CCRF-CEM leukemia
  TGI: > 100 µM
HCT-116 colon
  TGI: > 100 µM
MOLT-4 leukemia
  TGI: > 100 µM
NCI-H23 lung
  TGI: > 100 µM
SNB-19 CNS
  TGI: > 100 µM
SNB-75 CNS
  TGI: > 100 µM

## O=S(=O)(O)CCSSCCS(=O)(=O)O
CCRF-CEM leukemia
  TGI: > 1000 µM
HCT-116 colon
  TGI: > 1000 µM
MOLT-4 leukemia
  TGI: > 1000 µM
NCI-H23 lung
  TGI: > 1000 µM
SNB-19 CNS
  TGI: > 1000 µM
SNB-75 CNS
  TGI: > 1000 µM

## CCOc1cccc(C=Nc2ccccc2SSc2ccccc2N=Cc2cccc(OCC)c2O)c1O
CCRF-CEM leukemia
  TGI: 12.2 µM
HCT-116 colon
  TGI: 11.2 µM
MOLT-4 leukemia
  TGI: 10.4 µM
NCI-H23 lung
  TGI: 20.3 µM
SNB-19 CNS
  TGI: 47.4 µM
SNB-75 CNS
  TGI: 56 µM

## COC(=O)c1ccccc1/C=C1\Cc2c(C)c3c(c(C)c2C1=O)CCC3
CCRF-CEM leukemia
  TGI: > 100 µM
HCT-116 colon
  TGI: > 100 µM
MOLT-4 leukemia
  TGI: > 100 µM
NCI-H23 lung
  TGI: > 100 µM
SNB-19 CNS
  TGI: > 100 µM
SNB-75 CNS
  TGI: > 100 µM

## O=C1C2=Cc3ccccc3CCN2c2ccccc21
CCRF-CEM leukemia
  TGI: 26.1 µM
HCT-116 colon
  TGI: > 70.4 µM
MOLT-4 leukemia
  TGI: 48 µM
NCI-H23 lung
  TGI: > 100 µM
SNB-19 CNS
  TGI: > 100 µM
SNB-75 CNS
  TGI: > 100 µM

## Cc1c2c(cc3c1C(=O)C(=O)C([C@@H](C)CO)=C3O)C(C)(C)CCC2
CCRF-CEM leukemia
  TGI: 40.7 µM
HCT-116 colon
  TGI: 93.1 µM
MOLT-4 leukemia
  TGI: 93.2 µM
NCI-H23 lung
  TGI: 45.2 µM
SNB-19 CNS
  TGI: 23.3 µM
SNB-75 CNS
  TGI: 86.5 µM
